From the kinase profiling compilation of Christmann-Franck et al. (2016)

Experiments:
Assay in all cases: KINOMEscan competition binding
Settings in all cases: compound 10.0 µM
[1] = target: PTK2 (human) (UniProt Q05397)
[2] = target: MAPK7 (human) (UniProt Q13164)
[3] = target: CDC42BPB (human) (UniProt Q9Y5S2)
[4] = target: PRKG1 (human) (UniProt Q13976)
[5] = target: MAPKAPK2 (human) (UniProt P49137)
[6] = target: PAK4 (human) (UniProt O96013)
[7] = target: AAK1 (human) (UniProt Q2M2I8)
[8] = target: PIM2 (human) (UniProt Q9P1W9)
[9] = target: MAPK14 (human) (UniProt Q16539)
[10] = target: TGFBR1 (human) (UniProt P36897)
[11] = target: CSNK1D (human) (UniProt P48730)
[12] = target: ACVR1 (human) (UniProt Q04771)
[13] = target: MAP3K4 (human) (UniProt Q9Y6R4)
[14] = target: CAMKK1 (human) (UniProt Q8N5S9)
[15] = target: CLK2 (human) (UniProt P49760)
Sequence of CLK2 (human) (P49760 whole entry, looked up): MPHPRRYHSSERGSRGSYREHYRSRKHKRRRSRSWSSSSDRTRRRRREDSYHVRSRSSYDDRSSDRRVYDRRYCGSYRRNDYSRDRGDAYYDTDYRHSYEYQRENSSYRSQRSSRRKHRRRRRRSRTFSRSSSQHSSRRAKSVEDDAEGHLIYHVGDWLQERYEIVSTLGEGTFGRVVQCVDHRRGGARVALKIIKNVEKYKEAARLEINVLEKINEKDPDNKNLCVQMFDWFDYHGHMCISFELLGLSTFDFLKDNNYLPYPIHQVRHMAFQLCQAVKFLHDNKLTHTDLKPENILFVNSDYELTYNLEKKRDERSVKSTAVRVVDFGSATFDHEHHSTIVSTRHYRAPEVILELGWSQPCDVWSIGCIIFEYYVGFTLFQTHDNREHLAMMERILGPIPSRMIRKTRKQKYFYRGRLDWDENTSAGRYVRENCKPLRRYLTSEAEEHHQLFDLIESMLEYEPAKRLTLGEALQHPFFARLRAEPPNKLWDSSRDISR

[16] = target: ACVR1B (human) (UniProt P36896)
[17] = target: PLK3 (human) (UniProt Q9H4B4)
[18] = target: PRKD2 (human) (UniProt Q9BZL6)
[19] = target: PDPK1 (human) (UniProt O15530)
[20] = target: RPS6KA4 KD1 (human) (UniProt O75676)
[21] = target: PLK4 (human) (UniProt O00444)
[22] = target: TLK2 (human) (UniProt Q86UE8)
[23] = target: CDC42BPG (human) (UniProt Q6DT37)
[24] = target: MAP4K2 (human) (UniProt Q12851)
[25] = target: FGFR1 (human) (UniProt P11362)
Sequence of FGFR1 (human) (P11362 whole entry, looked up): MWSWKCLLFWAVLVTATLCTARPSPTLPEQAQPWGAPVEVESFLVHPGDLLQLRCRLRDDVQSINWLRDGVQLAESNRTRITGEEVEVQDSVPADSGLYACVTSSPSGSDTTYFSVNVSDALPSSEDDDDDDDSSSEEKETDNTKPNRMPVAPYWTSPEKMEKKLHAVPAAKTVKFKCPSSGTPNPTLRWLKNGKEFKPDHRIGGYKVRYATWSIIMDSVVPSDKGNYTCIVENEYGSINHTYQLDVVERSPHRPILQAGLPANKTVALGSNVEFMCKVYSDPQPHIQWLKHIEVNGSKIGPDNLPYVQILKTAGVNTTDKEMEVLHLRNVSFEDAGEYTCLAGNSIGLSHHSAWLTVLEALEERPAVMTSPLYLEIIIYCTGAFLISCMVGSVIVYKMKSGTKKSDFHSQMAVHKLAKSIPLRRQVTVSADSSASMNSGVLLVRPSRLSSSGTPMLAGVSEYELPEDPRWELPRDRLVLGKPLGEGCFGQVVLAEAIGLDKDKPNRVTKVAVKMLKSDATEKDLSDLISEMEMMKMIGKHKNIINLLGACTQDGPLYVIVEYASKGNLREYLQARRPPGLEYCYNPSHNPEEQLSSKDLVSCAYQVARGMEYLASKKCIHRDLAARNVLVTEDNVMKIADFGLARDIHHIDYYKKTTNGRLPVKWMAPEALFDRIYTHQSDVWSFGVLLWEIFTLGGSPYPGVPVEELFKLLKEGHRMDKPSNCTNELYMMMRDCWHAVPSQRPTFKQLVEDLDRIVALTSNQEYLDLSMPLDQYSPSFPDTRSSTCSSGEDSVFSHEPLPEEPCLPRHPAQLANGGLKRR

[26] = target: ULK3 (human) (UniProt Q6PHR2)
[27] = target: PKN1 (human) (UniProt Q16512)
[28] = target: RPS6KA2 KD1 (human) (UniProt Q15349)
[29] = target: EPHA2 (human) (UniProt P29317)
[30] = target: STK32B (human) (UniProt Q9NY57)
Sequence of STK32B (human) (Q9NY57 whole entry, looked up): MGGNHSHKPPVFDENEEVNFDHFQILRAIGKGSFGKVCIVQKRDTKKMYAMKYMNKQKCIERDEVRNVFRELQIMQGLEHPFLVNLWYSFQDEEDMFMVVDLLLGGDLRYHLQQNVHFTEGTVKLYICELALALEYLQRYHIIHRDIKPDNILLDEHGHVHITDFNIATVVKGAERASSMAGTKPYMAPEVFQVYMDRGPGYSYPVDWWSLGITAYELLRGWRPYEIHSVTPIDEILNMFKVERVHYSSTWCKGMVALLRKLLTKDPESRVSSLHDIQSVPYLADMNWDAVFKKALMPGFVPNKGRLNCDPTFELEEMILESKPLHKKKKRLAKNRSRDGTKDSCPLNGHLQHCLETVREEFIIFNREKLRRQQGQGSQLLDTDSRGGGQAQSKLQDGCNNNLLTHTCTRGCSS

[31] = target: MAP4K5 (human) (UniProt Q9Y4K4)
[32] = target: RPS6KA2 KD2 (human) (UniProt Q15349)
[33] = target: SRPK1 (human) (UniProt Q96SB4)
Sequence of SRPK1 (human) (Q96SB4 whole entry, looked up): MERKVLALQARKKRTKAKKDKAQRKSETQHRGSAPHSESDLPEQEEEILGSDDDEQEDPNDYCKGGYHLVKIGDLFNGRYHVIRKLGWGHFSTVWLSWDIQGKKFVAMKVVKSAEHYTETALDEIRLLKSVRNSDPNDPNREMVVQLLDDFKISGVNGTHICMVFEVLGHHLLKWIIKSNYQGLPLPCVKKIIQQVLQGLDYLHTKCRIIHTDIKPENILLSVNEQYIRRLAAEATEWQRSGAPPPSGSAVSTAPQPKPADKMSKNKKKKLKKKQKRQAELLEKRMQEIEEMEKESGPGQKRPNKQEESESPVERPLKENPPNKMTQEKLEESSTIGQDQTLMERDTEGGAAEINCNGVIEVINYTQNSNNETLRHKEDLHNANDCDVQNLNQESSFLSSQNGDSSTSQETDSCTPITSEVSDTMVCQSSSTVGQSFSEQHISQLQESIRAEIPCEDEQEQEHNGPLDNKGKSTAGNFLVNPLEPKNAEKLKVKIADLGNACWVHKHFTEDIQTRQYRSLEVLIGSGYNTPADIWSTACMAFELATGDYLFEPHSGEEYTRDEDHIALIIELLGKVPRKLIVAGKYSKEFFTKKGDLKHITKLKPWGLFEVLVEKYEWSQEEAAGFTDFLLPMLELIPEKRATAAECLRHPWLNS

[34] = target: FGFR3 (human) (UniProt P22607)
[35] = target: ERBB4 (human) (UniProt Q15303)
[36] = target: NLK (human) (UniProt Q9UBE8)
Sequence of NLK (human) (Q9UBE8 whole entry, looked up): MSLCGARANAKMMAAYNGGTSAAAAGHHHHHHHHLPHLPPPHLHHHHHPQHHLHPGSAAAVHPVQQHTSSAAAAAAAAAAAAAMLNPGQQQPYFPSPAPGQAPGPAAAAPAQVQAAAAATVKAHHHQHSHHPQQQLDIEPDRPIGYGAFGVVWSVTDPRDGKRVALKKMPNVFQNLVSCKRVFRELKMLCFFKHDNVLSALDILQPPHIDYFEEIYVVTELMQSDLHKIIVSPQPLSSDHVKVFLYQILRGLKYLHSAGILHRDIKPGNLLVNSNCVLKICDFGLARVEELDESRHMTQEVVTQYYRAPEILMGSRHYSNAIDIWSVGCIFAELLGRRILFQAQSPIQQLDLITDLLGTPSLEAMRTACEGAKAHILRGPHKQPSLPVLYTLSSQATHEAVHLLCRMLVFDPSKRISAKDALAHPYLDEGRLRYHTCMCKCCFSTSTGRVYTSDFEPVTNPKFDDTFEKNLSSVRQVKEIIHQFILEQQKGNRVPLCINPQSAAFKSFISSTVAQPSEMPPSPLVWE

[37] = target: CSK (human) (UniProt P41240)
[38] = target: ERBB2 (human) (UniProt P04626)
[39] = target: EPHA6 (human) (UniProt Q9UF33)
[40] = target: PKN2 (human) (UniProt Q16513)

Sequence of PTK2 (human) (Q05397 whole entry, looked up): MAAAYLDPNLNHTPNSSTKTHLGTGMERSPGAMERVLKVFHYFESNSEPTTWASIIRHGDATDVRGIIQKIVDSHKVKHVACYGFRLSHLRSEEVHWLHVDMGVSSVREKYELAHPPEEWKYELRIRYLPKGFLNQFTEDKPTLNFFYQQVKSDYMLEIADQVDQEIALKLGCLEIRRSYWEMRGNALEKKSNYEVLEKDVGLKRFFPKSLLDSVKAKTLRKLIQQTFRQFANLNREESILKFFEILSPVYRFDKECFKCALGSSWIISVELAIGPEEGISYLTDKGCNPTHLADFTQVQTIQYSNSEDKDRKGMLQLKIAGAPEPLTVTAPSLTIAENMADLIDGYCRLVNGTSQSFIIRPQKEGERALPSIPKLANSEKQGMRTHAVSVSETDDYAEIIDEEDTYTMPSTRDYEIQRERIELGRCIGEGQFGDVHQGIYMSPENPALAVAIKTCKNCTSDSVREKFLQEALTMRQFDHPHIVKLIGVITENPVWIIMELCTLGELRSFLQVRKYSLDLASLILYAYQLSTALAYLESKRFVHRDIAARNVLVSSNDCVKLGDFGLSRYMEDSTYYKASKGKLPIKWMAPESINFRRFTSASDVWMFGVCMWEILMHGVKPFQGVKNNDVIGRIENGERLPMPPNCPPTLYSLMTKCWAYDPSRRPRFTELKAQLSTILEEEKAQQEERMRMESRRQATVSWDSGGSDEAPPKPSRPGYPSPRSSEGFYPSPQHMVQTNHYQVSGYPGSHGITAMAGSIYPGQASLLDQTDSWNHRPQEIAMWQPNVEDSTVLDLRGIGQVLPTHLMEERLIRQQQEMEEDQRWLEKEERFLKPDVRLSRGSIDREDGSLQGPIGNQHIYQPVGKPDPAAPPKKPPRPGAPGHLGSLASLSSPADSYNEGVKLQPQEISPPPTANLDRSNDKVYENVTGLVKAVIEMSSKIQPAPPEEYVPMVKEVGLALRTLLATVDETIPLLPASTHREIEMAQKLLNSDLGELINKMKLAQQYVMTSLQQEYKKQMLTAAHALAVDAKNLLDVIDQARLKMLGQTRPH
Sequence of MAPKAPK2 (human) (P49137 whole entry, looked up): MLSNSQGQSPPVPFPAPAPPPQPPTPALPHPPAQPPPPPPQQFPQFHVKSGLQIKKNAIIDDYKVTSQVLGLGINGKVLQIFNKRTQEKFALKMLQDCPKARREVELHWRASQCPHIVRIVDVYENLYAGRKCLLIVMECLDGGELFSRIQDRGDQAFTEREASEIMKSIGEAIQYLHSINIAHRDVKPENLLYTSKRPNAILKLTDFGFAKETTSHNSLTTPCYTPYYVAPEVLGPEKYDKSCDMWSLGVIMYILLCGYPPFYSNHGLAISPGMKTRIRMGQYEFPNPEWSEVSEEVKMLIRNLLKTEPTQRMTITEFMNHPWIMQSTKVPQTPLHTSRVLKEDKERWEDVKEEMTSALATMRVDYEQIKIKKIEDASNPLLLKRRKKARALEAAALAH
Sequence of PRKG1 (human) (Q13976 whole entry, looked up): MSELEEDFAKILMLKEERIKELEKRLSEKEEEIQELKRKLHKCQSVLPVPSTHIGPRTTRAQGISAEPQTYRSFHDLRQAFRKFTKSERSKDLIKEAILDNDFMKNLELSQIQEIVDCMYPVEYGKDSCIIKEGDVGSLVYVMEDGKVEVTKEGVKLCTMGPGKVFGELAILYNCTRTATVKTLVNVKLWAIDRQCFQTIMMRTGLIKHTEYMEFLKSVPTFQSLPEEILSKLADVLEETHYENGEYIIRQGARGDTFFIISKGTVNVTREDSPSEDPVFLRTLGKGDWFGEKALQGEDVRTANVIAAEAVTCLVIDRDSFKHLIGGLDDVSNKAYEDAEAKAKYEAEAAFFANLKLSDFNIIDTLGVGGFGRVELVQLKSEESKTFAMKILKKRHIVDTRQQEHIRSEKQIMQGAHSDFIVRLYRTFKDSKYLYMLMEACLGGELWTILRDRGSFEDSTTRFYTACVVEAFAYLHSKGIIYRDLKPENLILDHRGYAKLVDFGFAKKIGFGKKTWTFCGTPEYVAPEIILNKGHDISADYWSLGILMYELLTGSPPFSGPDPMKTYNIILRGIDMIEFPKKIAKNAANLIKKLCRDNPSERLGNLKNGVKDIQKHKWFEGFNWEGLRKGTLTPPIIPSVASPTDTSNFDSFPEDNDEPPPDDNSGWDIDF

Structure (SMILES)	kinase still bound, per cent of control [1] [%]	kinase still bound, per cent of control [2] [%]	kinase still bound, per cent of control [3] [%]	kinase still bound, per cent of control [4] [%]	kinase still bound, per cent of control [5] [%]	kinase still bound, per cent of control [6] [%]	kinase still bound, per cent of control [7] [%]	kinase still bound, per cent of control [8] [%]	kinase still bound, per cent of control [9] [%]	kinase still bound, per cent of control [10] [%]	kinase still bound, per cent of control [11] [%]	kinase still bound, per cent of control [12] [%]	kinase still bound, per cent of control [13] [%]	kinase still bound, per cent of control [14] [%]	kinase still bound, per cent of control [15] [%]	kinase still bound, per cent of control [16] [%]	kinase still bound, per cent of control [17] [%]	kinase still bound, per cent of control [18] [%]	kinase still bound, per cent of control [19] [%]	kinase still bound, per cent of control [20] [%]	other results
O=C(NC1CC1)c1cccc(-c2ccc3c(NC(=O)C4CC4)n[nH]c3c2)c1	90	93	76	100	100	79	10	100	2	77	78	48	93	37	37	59	100	100	81	100	kinase still bound, per cent of control [21]: 13%; kinase still bound, per cent of control [22]: 79%; kinase still bound, per cent of control [23]: 62%; kinase still bound, per cent of control [24]: 99%; kinase still bound, per cent of control [25]: 100%; kinase still bound, per cent of control [26]: 13%; kinase still bound, per cent of control [27]: 100%; kinase still bound, per cent of control [28]: 96%; kinase still bound, per cent of control [29]: 100%; kinase still bound, per cent of control [30]: 100%; kinase still bound, per cent of control [31]: 24%; kinase still bound, per cent of control [32]: 82%; kinase still bound, per cent of control [33]: 43%; kinase still bound, per cent of control [34]: 100%; kinase still bound, per cent of control [35]: 95%; kinase still bound, per cent of control [36]: 31%; kinase still bound, per cent of control [37]: 84%; kinase still bound, per cent of control [38]: 100%; kinase still bound, per cent of control [39]: 100%; kinase still bound, per cent of control [40]: 78%
CCN1CCN(Cc2ccc(Nc3ncc4c(n3)N(C)c3ccccc3C(=O)N4C)cc2C(F)(F)F)CC1	57	0.1	99	100	100	80	36	30	100	81	32	52	81	79	39	100	100	25	100	100	kinase still bound, per cent of control [21]: 0.1%; kinase still bound, per cent of control [22]: 89%; kinase still bound, per cent of control [23]: 92%; kinase still bound, per cent of control [24]: 17%; kinase still bound, per cent of control [25]: 17%; kinase still bound, per cent of control [26]: 7.4%; kinase still bound, per cent of control [27]: 76%; kinase still bound, per cent of control [28]: 37%; kinase still bound, per cent of control [29]: 83%; kinase still bound, per cent of control [30]: 100%; kinase still bound, per cent of control [31]: 35%; kinase still bound, per cent of control [32]: 32%; kinase still bound, per cent of control [33]: 82%; kinase still bound, per cent of control [34]: 43%; kinase still bound, per cent of control [35]: 95%; kinase still bound, per cent of control [36]: 56%; kinase still bound, per cent of control [37]: 93%; kinase still bound, per cent of control [38]: 100%; kinase still bound, per cent of control [39]: 90%; kinase still bound, per cent of control [40]: 55%
